One experiment addresses T1, AGE-BSA (Bos taurus, UniProt P02769).
T1 construct: Bovine serum albumin (fraction V) (BSA); from tissue; host or cells: bovine serum (fraction V albumin)
The experiment in a line: In-vitro screening for AGE-breaking activity (ELISA on 16 weeks AGE-BSA). The conditions noted are these: Concentration 1 mM; 10µg/ml 16 weeks AGE-BSA, 37°C, 24 hours. The class given is biochemical, bovine. Background: An ELISA detects its analyte on a solid surface through an enzyme-linked reagent.
T1 sequence (P02769 25-607): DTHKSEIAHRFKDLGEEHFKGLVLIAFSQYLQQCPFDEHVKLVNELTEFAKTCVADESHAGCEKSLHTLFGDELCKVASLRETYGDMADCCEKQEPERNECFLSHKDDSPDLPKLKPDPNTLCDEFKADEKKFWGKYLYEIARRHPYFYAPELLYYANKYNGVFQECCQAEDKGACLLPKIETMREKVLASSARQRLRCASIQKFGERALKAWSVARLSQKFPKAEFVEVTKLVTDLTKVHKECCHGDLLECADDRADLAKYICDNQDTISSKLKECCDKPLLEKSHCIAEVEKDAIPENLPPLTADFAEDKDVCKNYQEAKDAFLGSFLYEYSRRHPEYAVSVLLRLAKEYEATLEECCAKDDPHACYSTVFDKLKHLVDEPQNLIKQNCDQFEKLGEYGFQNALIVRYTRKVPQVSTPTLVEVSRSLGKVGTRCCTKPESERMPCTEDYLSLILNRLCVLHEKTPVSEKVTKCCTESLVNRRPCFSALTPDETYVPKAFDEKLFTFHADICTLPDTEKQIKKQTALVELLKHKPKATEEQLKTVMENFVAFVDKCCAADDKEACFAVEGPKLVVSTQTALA
Procedure: • Materials: • Bovine serum albumin (fraction V) (BSA) • Glucose, analytical grade • Phosphate buffered saline (PBS) • Equipment: • Microplate ELISA Reader - Spectramax Plus (Molecular Devices, USA) • Microplate washer, (Bio -Tec Instruments, USA) • pH meter Methods of experiment: Elisa (Enzyme Linked Immunosorbent Assay) 160 mg/ml of protein, bovine serum albumin, BSA and 1.6M glucose sugar were dissolved in phosphate buffered saline, PBS. Sodium azide was added at 0.02% concentration as a preservative. The solution was filtered asceptically through a 0.22 µM filter and kept for aging at 37°C for 16 weeks. After 16 weeks the solution was dialyzed against PBS, aliquoted and stored at - 20°C.
To determine the AGE breaking activity, 10µg/ml of the 16 weeks AGE-BSA was incubated with different concentrations of the test compounds at 37°C for 24 hours and AGE breaking activity of the test compounds by ELISA was determined. […] Different concentrations of 16 weeks AGE-BSA were coated on a microtitre plate as standard. Each concentration is coated in triplicates. • 2. The test samples were coated on microtitre plate at a concentration of 5 ng. to 20 ng per well in triplicates. • 3. The plate was incubated at 37°C for one hour. • 4. After incubation the plate was washed with PBST (PBS with 0.05% Tween 20). • 5. Blocking with 5% skimmed milk in PBS at 37°C for one hour was done. • 6. The plate was washed with PBST. • 7. Primary antibody against AGE-BSA was added and the plate is incubated at 37°C for one hour. • 8. The plate was washed with PBST • 9. Secondary antibody anti rabbit HRPO (Horse-Radish Per Oxidase) conjugate was added and the plate is incubated at 37°C for one hour. • 10. The plate was washed with PBST. • 11. Colour development with OPD (orthophenylenediamine dihydrochloride) and hydrogen peroxide was done. • 12. OD (optical density) at (450nm reading - 620nm reading) was measured after incubation at 37°C for 15 minutes with Microplate ELISA Reader.
The breaker activity of the compounds were determined by the following formula: % Breaker activity =(OD450-620 Control - OD450-620 Test)/(OD450-620 Control)x 100 [formula]
As to `CS(=O)(=O)NNC(=O)c1ccc[n+](CC(=O)c2ccc([N+](=O)[O-])s2)c1` [Compound 49, 1-2-(5-nitro-thien-2-yl)-2-oxoethyl)-3-(methanesulfonyl hydrazino carbonyl) pyridinium chloride], the % breakage of AGE-BSA crosslinks at 1000 µM came to 42%.

Turning to `NC(=O)c1cc(C(=O)NNC(=O)c2ccc[n+](CC(=O)c3cccs3)c2)c[n+](CC(=O)c2cccs2)c1` [Compound 42, 1-[1-(2-thien-2'-yl-2-oxoethyl)-5-aminocarbonyl-3-carbonylpyridinium]-2-[1-(2-Thien-2'-yl-2-oxoethyl)-3-carbonylpyridinium] hydrazine dichloride], the % breakage of AGE-BSA crosslinks at 1000 µM amounted to 95.4%.

In turn, `Cc1ccc(C(=O)NNS(C)(=O)=O)c[n+]1CC(=O)c1cccs1` [Compound 39, 1-(2-thien-2'-yl-2-oxoethyl)-3-(methanesulfonyl hydrazinocarbonyl) -6-methyl pyridinium bromide] had a % breakage of AGE-BSA crosslinks at 1000 µM of 77.7%.

The same experiment, now with this note: Concentration 2.5 mM; 10µg/ml 16 weeks AGE-BSA, 37°C, 24 hours.
Compound `Cc1ccc(C(=O)NNC(=O)c2ccc[n+](CC(=O)c3cccs3)c2)c[n+]1CC(=O)c1cccs1` [Compound 31, 1-[1-(2-thien-2'-yl-2-oxoethyl)-6-methyl-3-carbonylpyridinium]-2-[1-(2-Thien-2'-yl-2-oxoethyl)-3-carbonylpyridinium] hydrazine dichloride] registered a % breakage of AGE-BSA crosslinks at 2500 µM of 85.7%.

In the case of `CS(=O)(=O)NNC(=O)c1cc(Br)c[n+](CC(=O)c2cccs2)c1` [Compound 35, 1-(2-thien-2'-yl-2-oxoethyl)-3-(methanesulfonyl hydrazinocarbonyl)-5-bromo pyridinium bromide], the % breakage of AGE-BSA crosslinks at 2500 µM amounted to 29.4%.

Staying with this experiment, now noted: Concentration 10 mM; 10µg/ml 16 weeks AGE-BSA, 37°C, 24 hours.
In turn, `CCOC(=O)C1CCCN1C(=O)C[n+]1cccc(C(=O)NNC(=O)c2ccc[n+](CC(=O)N3CCCC3C(=O)OCC)c2)c1` (stereo not drawn) [Compound 41, N,N'-bis[3-carbonyl-1-(2-(2-ethoxycarbonylpyrrolidin-1-yl)-2-oxoethyl)pyridinium] hydrazine dichloride] showed a % breakage of AGE-BSA crosslinks at 10000 µM of 20.3%.

Compound `CC(C)S(=O)(=O)NNC(=O)c1ccc[n+](CC(=O)c2cccs2)c1` [Compound 32, 1-(2-thien-2'-yl-2-oxoethyl)-3-(isopropylsulfonyl hydrazinocarbonyl) pyridinium bromide] returned a % breakage of AGE-BSA crosslinks at 10000 µM of 31.4%.

In turn, `COCCOC(=O)c1ccc[n+](CC(=O)c2ccc(Cl)cc2Cl)c1` [Compound 4, 1-(2-(2',4'-dichlorophenyl)-2-oxoethyl)-3-(2(methoxy)ethyloxycarbonyl) pyridinium bromide] showed a % breakage of AGE-BSA crosslinks at 10000 µM of 13%.

Consider `O=C(NNC(=O)c1ccc[n+](CC(=O)c2ccc(Cl)s2)c1)c1ccc[n+](CC(=O)c2ccc(Cl)s2)c1` [Compound 44, N,N'-bis[3-carbonyl-1-(2-(5-chloro-thien-2-yl)-2-oxoethyl)pyridinium] hydrazine dichloride], for which the % breakage of AGE-BSA crosslinks at 10000 µM was 78.4%.

Consider `COCCNC(=O)c1cc(Br)c[n+](CC(=O)c2cccs2)c1` [Compound 29, 1-(2-thien-2'-yl-2-oxoethyl)-3-((2-methoxyethyl)aminocarbonyl)-5-bromo pyridinium chloride], for which the % breakage of AGE-BSA crosslinks at 10000 µM amounted to 32.4%.

For the compound `O=C(NNS(=O)(=O)C(F)(F)F)c1ccc[n+](CC(=O)c2cccs2)c1` [Compound 50, 1-(2-thien-2'-yl-2-oxoethyl)-3-(trifluoromethanesulfonyl hydrazinocarbonyl) - pyridinium bromide], the % breakage of AGE-BSA crosslinks at 10000 µM turned out to be 92.6%.

In the case of `O=C(NNC(=O)c1cccnc1Cl)c1ccc[n+](CC(=O)c2cccs2)c1` [Compound 24, 1-(2-thien-2'yl-2-oxoethyl)-3-(2-(2-chloro-3-pyridoylhydrazinocarbonyl) -pyridinium chloride], the % breakage of AGE-BSA crosslinks at 10000 µM amounted to 12.5%.

Compound `O=C(NNC(=O)c1ccc[n+](CC(=O)c2ccco2)c1)c1ccc[n+](CC(=O)c2ccco2)c1` [Compound 14, N, N' - bis [3-carbonyl-1-(2-furan-2'-yl-2-oxoethyl)pyridinium] hydrazine dibromide] had a % breakage of AGE-BSA crosslinks at 10000 µM of 14%.

With `Cc1ccc(C(=O)C[n+]2cccc(C(=O)NNC(=O)c3ccc[n+](CC(=O)c4ccc(C)s4)c3)c2)s1` [Compound 40, N,N'-bis[3-carbonyl-1-(2-(5-methyl-thien-2-yl)-2-oxoethyl)pyridinium] hydrazine dichloride], the % breakage of AGE-BSA crosslinks at 10000 µM was 82%.

In the case of `CS(=O)(=O)NNC(=O)c1ccc[n+](CC(=O)c2cccs2)c1` [Compound 27, 1-(2-thien-2'-yl-2-oxoethyl)-3-(methanesulfonyl hydrazinocarbonyl) pyridinium chloride], the % breakage of AGE-BSA crosslinks at 10000 µM came to 17.5%.

In turn, `O=C(C[n+]1cccc(C(=O)NCCOC(=O)c2ccccc2)c1)Nc1ccccc1` [Compound 5, 1-(2-phenylamino-2-oxoethyl)-3-((benzoyloxy)ethylaminocarbonyl) pyridinium chloride] had a % breakage of AGE-BSA crosslinks at 10000 µM of 37%.

Compound `CCOC(=O)NNC(=O)c1ccc[n+](CC(=O)c2cccs2)c1` [Compound 36, 1-(2-thien-2'-yl-2-oxoethyl)-3-(ethoxycarbonyl hydrazinocarbonyl) pyridinium bromide] yielded a % breakage of AGE-BSA crosslinks at 10000 µM of 33.4%.

Staying with this experiment, now noted: Concentration 25 mM; 10µg/ml 16 weeks AGE-BSA, 37°C, 24 hours; read-out: % Breakage.
On to `COCCOC(=O)c1ccc[n+](CC(=O)c2ccc(Cl)cc2Cl)c1` [Compound 4, 1-(2-(2',4'-dichlorophenyl)-2-oxoethyl)-3-(2(methoxy)ethyloxycarbonyl) pyridinium bromide], for which the inhibition at 25000 µM came out at 41%.

With `O=C(C[n+]1cccc(C(=O)NCCOC(=O)c2ccccc2)c1)Nc1ccccc1` [Compound 5, 1-(2-phenylamino-2-oxoethyl)-3-((benzoyloxy)ethylaminocarbonyl) pyridinium chloride], the inhibition at 25000 µM turned out to be 90%.

Still in this experiment, the particulars now being: read-out: % Breakage.
As to `O=C(C[n+]1ccsc1)c1ccccc1` [PTB, N- phenacyl thiazolium bromide, reference compound], the inhibition at 10000 µM was 27% and the inhibition at 20000 µM is 47%.

In the case of `O=C(C[n+]1ccc(C(=O)NCCOC(=O)c2ccccc2)cc1)Nc1ccccc1` [Compound 48, 1-(2-phenylamino-2-oxoethyl)-4-[2-(benzoyloxy)ethylaminocarbonyl] pyridinium chloride], the inhibition at 10000 µM was determined as 19.1%.

Regarding `CS(=O)(=O)NNC(=O)c1ccc[n+](CC(=O)c2cc([N+](=O)[O-])cs2)c1` [Compound 46, 1-(2-(4-nitro-thien-2-yl)-2-oxoethyl)-3-(methanesulfonyl hydrazinocarbonyl) pyridinium bromide], the inhibition at 10000 µM turned out to be 60.9%.

On to `Cc1ccc(C(=O)C[n+]2cccc(C(=O)NNS(C)(=O)=O)c2)s1` [Compound 45, 1-(2-(5-methyl-thien-2-yl)-2-oxoethyl)-3-(methanesulfonyl hydrazinocarbonyl) pyridinium chloride], for which the inhibition at 10000 µM is 25.2%.

For `CCOC(=O)C1CSCN1C(=O)C[n+]1cccc(C(=O)NNS(C)(=O)=O)c1` (stereo not drawn) [Compound 43, 1-(2-(4-carbethoxy-thiazolidin-3-yl)-2oxoethyl)-3-(methanesulfonyl hydrazinocarbonyl) pyridinium chloride], the inhibition at 10000 µM is 25.1%.

For `COCCNC(=O)c1ccc[n+](CC(=O)c2ccc(Cl)cc2Cl)c1` [Compound 20, 1-(2',4'-dichloro-phenyl-2-oxoethyl)-3-(2-methoxyethylaminocarbonyl)-pyridinium bromide], the inhibition at 5000 µM is 17.7%.

With `CC(C)NC(=O)C[n+]1cccc(C(=O)NNS(C)(=O)=O)c1` [Compound 25, 1-(2-isopropylamino-2-oxoethyl)-3-(2-methylsulfonylhydrazinocarbonyl) -pyridinium chloride], the inhibition at 10000 µM is 10.8%.

As for `CS(=O)(=O)NNC(=O)c1ccc[n+](CC(=O)N2CCC(Cc3ccccc3)CC2)c1` [Compound 33, 1-(2-(4-benzylpiperidin-1-yl)-2-oxoethyl)-3-(methanesulfonyl hydrazinocarbonyl) pyridinium chloride], the inhibition at 10000 µM is 20.9%.

For the compound `COCCNC(=O)c1ccc[n+](CC(=O)NC2CC2)c1` [Compound 22, 1-(2-cyclopropylamino-2-oxoethyl)-3-(2-methoxyethylaminocarbonyl)-pyridinium chloride], the inhibition at 10000 µM came to 12.4%.

Regarding `O=C(NNC(=O)c1ccc[n+](CC(=O)c2cc([N+](=O)[O-])cs2)c1)c1ccc[n+](CC(=O)c2cc([N+](=O)[O-])cs2)c1` [Compound 38, N,N'-bis[3-carbonyl-1-(2-(4-nitro-thien-2-yl)-2-oxoethyl)pyridinium] hydrazine dichloride], the inhibition at 10000 µM came out at 75.9%.

Consider `CS(=O)(=O)NNC(=O)c1ccc[n+](CC(=O)c2ccc(Cl)s2)c1` [Compound 37, 1-(2-(5-chloro-thien-2-yl)-2-oxoethyl)-3-(methanesulfonyl hydrazinocarbonyl) pyridinium bromide], for which the inhibition at 10000 µM stood at 40.9%.

Turning to `O=C(C[n+]1cccc(C(=O)NNc2ccccc2)c1)Nc1ccccc1` [Compound 47, 1-(2-phenylamino-2-oxoethyl)-3-(phenyl hydrazinocarbonyl) pyridinium chloride], the inhibition at 2500 µM turned out to be 68.3%.

As to `CCOC(=O)C1CCCN1C(=O)C[n+]1cccc(C(=O)NNS(C)(=O)=O)c1` (stereo not drawn) [Compound 34, 1-(2-(2-ethoxycarbonylpyrrolidin-1-yl)-2-oxoethyl)-3-(methanesulfonyl hydrazinocarbonyl) pyridinium chloride], the inhibition at 10000 µM was found to be 25.3%.

The record behind these values is patent publication EP1243581A1, “Pyridinium compounds useful for the treatment of AGE-related diseases” (Torrent Pharmaceuticals Ltd, priority 2001, dated 2002).
